Values of other authors as cited in CN117800914A, “一种抗SARS-CoV-2病毒奥密克戎突变种抑制剂” (Second Military Medical University SMMU, priority 2023, dated 2024).

Test system: COVID-19
Conditions: early use, cited from earlier work

Compound	reduction of risk of hospitalization/death (in words) (mild to moderate patients at risk of progression)	reduction of risk of severe COVID-19
CC(C)C(=O)OC[C@H]1O[C@@H](n2ccc(NO)nc2=O)[C@H](O)[C@@H]1O [莫那匹韦]	可降低住院/死亡风险	–
CCC(CC)COC(=O)[C@H](C)N[P@](=O)(OC[C@H]1O[C@@](C#N)(c2ccc3c(N)ncnn23)[C@H](O)[C@@H]1O)Oc1ccccc1 [瑞德西韦]	–	87%
